Patent publication US8580794B2 (AbbVie Inc., priority 2009, dated 2013)

These molecules were tested against GST-Bc1-2 (Homo sapiens, UniProt P10415) (assay: Time Resolved-Fluorescence Resonance Energy Transfer (TR-FRET) Bcl-2 binding assay with F-Bak peptide probe). Details: GST-Bcl-2 1 nM, F-Bak probe 100 nM, Tb-anti-GST 1 nM; '<' = below limit of detection; read-out: TR-FRET Bcl-2 Binding Ki.
Chain of GST-Bc1-2 (P10415 whole entry): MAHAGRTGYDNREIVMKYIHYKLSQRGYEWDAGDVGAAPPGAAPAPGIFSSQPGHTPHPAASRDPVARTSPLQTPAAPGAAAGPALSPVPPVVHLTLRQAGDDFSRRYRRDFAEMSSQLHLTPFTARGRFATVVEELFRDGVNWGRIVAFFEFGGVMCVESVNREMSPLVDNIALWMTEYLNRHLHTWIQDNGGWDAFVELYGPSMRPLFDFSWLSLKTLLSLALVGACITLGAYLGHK

| SMILES | Ki [nM] |
| --- | --- |
| O=C(NS(=O)(=O)c1ccc(NCC2CN(C3CC3)CCO2)c([N+](=O)[O-])c1)c1ccc(N2CCN(CC3=C(c4ccc(Cl)cc4)CC4(CC3)CC4)CC2)cc1Oc1cnc2[nH]ccc2c1 (stereo not drawn) [Example 330, 4-(4-{[5-(4-chlorophenyl)spiro[2.5]oct-5-en-6-yl]methyl}piperazin-1-yl)-N-[(4-{[(4-cyclopropylmorpholin-2-yl)methyl]amino}-3-nitrophenyl)sulfonyl]-2-(1H-pyrrolo[2,3-b]pyridin-5-yloxy)benzamide] | < 0.01 |
| COC1(COc2ccc(S(=O)(=O)NC(=O)c3ccc(N4CCN(CC5=C(c6ccc(Cl)cc6)CC(C)(C)CC5)CC4)cc3Oc3cnc4[nH]ccc4c3)cc2[N+](=O)[O-])CCOCC1 [Example 234, 4-(4-{[2-(4-chlorophenyl)-4,4-dimethylcyclohex-1-en-1-yl]methyl}piperazin-1-yl)-N-({4-[(4-methoxytetrahydro-2H-pyran-4-yl)methoxy]-3-nitrophenyl}sulfonyl)-2-(1H-pyrrolo[2,3-b]pyridin-5-yloxy)benzamide] | 0.115 |
| CC1(C)CCC(CN2CCN(c3ccc(C(=O)NS(=O)(=O)c4ccc(N[C@H]5CC[C@H](N6CCN(C7CCOCC7)CC6)CC5)c([N+](=O)[O-])c4)c(Oc4cnc5[nH]ccc5c4)c3)CC2)=C(c2ccc(Cl)cc2)C1 [Example 128, Trans-4-(4-{[2-(4-chlorophenyl)-4,4-dimethylcyclohex-1-en-1-yl]methyl}piperazin-1-yl)-N-[(3-nitro-4-{[4-(4-tetrahydro-2H-pyran-4-ylpiperazin-1-yl)cyclohexyl]amino}phenyl)sulfonyl]-2-(1H-pyrrolo[2,3-b]pyridin-5-yloxy)benzamide] | < 0.01 |
| CC1(C)CCC(CN2CCN(c3ccc(C(=O)NS(=O)(=O)c4ccc(NC5CCC(N6CCC(F)(F)C6)CC5)c([N+](=O)[O-])c4)c(Oc4cnc5[nH]ccc5c4)c3)CC2)=C(c2ccc(Cl)cc2)C1 (stereo not drawn) [Example 346, 4-(4-{[2-(4-chlorophenyl)-4,4-dimethylcyclohex-1-en-1-yl]methyl}piperazin-1-yl)-N-[(4-{[4-(3,3-difluoropyrrolidin-1-yl)cyclohexyl]amino}-3-nitrophenyl)sulfonyl]-2-(1H-pyrrolo[2,3-b]pyridin-5-yloxy)benzamide] | 0.042 |
| CC1(C)CCC(CN2CCN(c3ccc(C(=O)NS(=O)(=O)c4ccc(NC5CN(C(CF)CF)C5)c([N+](=O)[O-])c4)c(Oc4cnc5[nH]ccc5c4)c3)CC2)=C(c2ccc(Cl)cc2)C1 [Example 151, 4-(4-{[2-(4-chlorophenyl)-4,4-dimethylcyclohex-1-en-1-yl]methyl}piperazin-1-yl)-N-{[4-({1-[2-fluoro-1-(fluoromethyl)ethyl]azetidin-3-yl}amino)-3-nitrophenyl]sulfonyl}-2-(1H-pyrrolo[2,3-b]pyridin-5-yloxy)benzamide] | 0.017 |
| CC1(C)CCC(CN2CCN(c3ccc(C(=O)NS(=O)(=O)c4cc(F)c(OCC5(F)CCOCC5)c(F)c4)c(Oc4cnc5[nH]ccc5c4)c3)CC2)=C(c2ccc(Cl)cc2)C1 [Example 310, 4-(4-{[2-(4-chlorophenyl)-4,4-dimethylcyclohex-1-en-1-yl]methyl}piperazin-1-yl)-N-({3,5-difluoro-4-[(4-fluorotetrahydro-2H-pyran-4-yl)methoxy]phenyl}sulfonyl)-2-(1H-pyrrolo[2,3-b]pyridin-5-yloxy)benzamide] | 0.165 |
| CC1(C)CCC(CN2CCN(c3ccc(C(=O)NS(=O)(=O)c4ccc(N[C@@H]5CCN(C6CC6)C5)c([N+](=O)[O-])c4)c(Oc4cnc5[nH]ccc5c4)c3)CC2)=C(c2ccc(Cl)cc2)C1 [Example 144, 4-(4-{[2-(4-chlorophenyl)-4,4-dimethylcyclohex-1-en-1-yl]methyl}piperazin-1-yl)-N-[(4-{[(3R)-1-cyclopropylpyrrolidin-3-yl]amino}-3-nitrophenyl)sulfonyl]-2-(1H-pyrrolo[2,3-b]pyridin-5-yloxy)benzamide] | < 0.01 |
| CC1(C)CCC(CN2CCN(c3ccc(C(=O)NS(=O)(=O)c4cnc(OCCN5CCOCC5)c(C#N)c4)c(Oc4cnc5[nH]ccc5c4)c3)CC2)=C(c2ccc(Cl)cc2)C1 [Example 57, 4-(4-{[2-(4-chlorophenyl)-4,4-dimethylcyclohex-1-en-1-yl]methyl}piperazin-1-yl)-N-{[5-cyano-6-(2-morpholin-4-ylethoxy)pyridin-3-yl]sulfonyl}-2-(1H-pyrrolo[2,3-b]pyridin-5-yloxy)benzamide] | 0.063 |
| CO[C@H]1CC[C@H](COc2ncc(S(=O)(=O)NC(=O)c3ccc(N4CCN(CC5=C(c6ccc(Cl)cc6)CC(C)(C)CC5)CC4)cc3Oc3cnc4[nH]ccc4c3)cc2Cl)CC1 [Example 210, Trans-N-({5-chloro-6-[(4-methoxycyclohexyl)methoxy]pyridin-3-yl}sulfonyl)-4-(4-{[2-(4-chlorophenyl)-4,4-dimethylcyclohex-1-en-1-yl]methyl}piperazin-1-yl)-2-(1H-pyrrolo[2,3-b]pyridin-5-yloxy)benzamide] | 0.011 |
| CN(C)CC(=O)N1CCO[C@H](CNc2ccc(S(=O)(=O)NC(=O)c3ccc(N4CCN(CC5=C(c6ccc(Cl)cc6)CC(C)(C)CC5)CC4)cc3Oc3cnc4[nH]ccc4c3)cc2[N+](=O)[O-])C1 [Example 258, 4-(4-{[2-(4-chlorophenyl)-4,4-dimethylcyclohex-1-en-1-yl]methyl}piperazin-1-yl)-N-{[4-({[(2R)-4-(N,N-dimethylglycyl)morpholin-2-yl]methyl}amino)-3-nitrophenyl]sulfonyl}-2-(1H-pyrrolo[2,3-b]pyridin-5-yloxy)benzamide] | < 0.01 |
| COc1ccc(CNc2ccc(S(=O)(=O)NC(=O)c3ccc(N4CCN(CC5=C(c6ccc(Cl)cc6)CC(C)(C)CC5)CC4)cc3Oc3cnc4[nH]ccc4c3)cc2[N+](=O)[O-])cc1 [Example 174, 4-(4-{[2-(4-chlorophenyl)-4,4-dimethylcyclohex-1-en-1-yl]methyl}piperazin-1-yl)-N-({4-[(4-methoxybenzyl)amino]-3-nitrophenyl}sulfonyl)-2-(1H-pyrrolo[2,3-b]pyridin-5-yloxy)benzamide] | < 0.01 |
| CC1(C)CCC(CN2CCN(c3ccc(C(=O)NS(=O)(=O)c4cnc(OCC5(F)CCOCC5)c(Cl)c4)c(Oc4cnc5[nH]ccc5c4)c3)CC2)=C(c2ccc(Cl)cc2)C1 [Example 96, N-({5-chloro-6-[(4-fluorotetrahydro-2H-pyran-4-yl)methoxy]pyridin-3-yl}sulfonyl)-4-(4-{[2-(4-chlorophenyl)-4,4-dimethylcyclohex-1-en-1-yl]methyl}piperazin-1-yl)-2-(1H-pyrrolo[2,3-b]pyridin-5-yloxy)benzamide] | 0.014 |
| COCCN1CCCC(CNc2ccc(S(=O)(=O)NC(=O)c3ccc(N4CCN(CC5=C(c6ccc(Cl)cc6)CC(C)(C)CC5)CC4)cc3Oc3cnc4[nH]ccc4c3)cc2[N+](=O)[O-])C1 (stereo not drawn) [Example 228, 4-(4-{[2-(4-chlorophenyl)-4,4-dimethylcyclohex-1-en-1-yl]methyl}piperazin-1-yl)-N-{[4-({[1-(2-methoxyethyl)piperidin-3-yl]methyl}amino)-3-nitrophenyl]sulfonyl}-2-(1H-pyrrolo[2,3-b]pyridin-5-yloxy)benzamide] | 26.8 |
| CN(C)CC(=O)N1CC[C@@H](Nc2ccc(S(=O)(=O)NC(=O)c3ccc(N4CCN(CC5=C(c6ccc(Cl)cc6)CC(C)(C)CC5)CC4)cc3Oc3cnc4[nH]ccc4c3)cc2[N+](=O)[O-])C1 [Example 255, 4-(4-{[2-(4-chlorophenyl)-4,4-dimethylcyclohex-1-en-1-yl]methyl}piperazin-1-yl)-N-[(4-{[(3R)-1-(N,N-dimethylglycyl)pyrrolidin-3-yl]amino}-3-nitrophenyl)sulfonyl]-2-(1H-pyrrolo[2,3-b]pyridin-5-yloxy)benzamide] | < 0.01 |
| CCN(C)C(=O)N1CCO[C@H](COc2ncc(S(=O)(=O)NC(=O)c3ccc(N4CCN(CC5=C(c6ccc(Cl)cc6)CC(C)(C)CC5)CC4)cc3Oc3cnc4[nH]ccc4c3)cc2Cl)C1 [Example 334, (2S)-2-{[(3-chloro-5-{[4-(4-{[2-(4-chlorophenyl)-4,4-dimethylcyclohex-1-en-1-yl]methyl}piperazin-1-yl)-2-(1H-pyrrolo[2,3-b]pyridin-5-yloxy)benzoyl]sulfamoyl}pyridin-2-yl)oxy]methyl}-N-ethyl-N-methylmorpholine-4-carboxamide] | 0.572 |
| CC1(C)CCC(CN2CCN(c3ccc(C(=O)NS(=O)(=O)c4ccc(OCC5CCOC5)c(Cl)c4)c(Oc4cnc5[nH]ccc5c4)c3)CC2)=C(c2ccc(Cl)cc2)C1 (stereo not drawn) [Example 323, 4-(4-{[2-(4-chlorophenyl)-4,4-dimethylcyclohex-1-en-1-yl]methyl}piperazin-1-yl)-N-{[3-chloro-4-(tetrahydrofuran-3-ylmethoxy)phenyl]sulfonyl}-2-(1H-pyrrolo[2,3-b]pyridin-5-yloxy)benzamide] | 0.104 |
| CC1(C)CCC(c2ccc(Cl)cc2)=C(CN2CCN(c3ccc(C(=O)NS(=O)(=O)c4cnc(OCC5CCOCC5)c(C#N)c4)c(Oc4cnc5[nH]ccc5c4)c3)CC2)C1 [Example 76, 4-(4-{[2-(4-chlorophenyl)-5,5-dimethylcyclohex-1-en-1-yl]methyl}piperazin-1-yl)-N-{[5-cyano-6-(tetrahydro-2H-pyran-4-ylmethoxy)pyridin-3-yl]sulfonyl}-2-(1H-pyrrolo[2,3-b]pyridin-5-yloxy)benzamide] | 0.196 |
| CC(C)c1cc(S(=O)(=O)NC(=O)c2ccc(N3CCN(CC4=C(c5ccc(Cl)cc5)CC(C)(C)CC4)CC3)cc2Oc2cnc3[nH]ccc3c2)cnc1OCC1CCOCC1 [Example 85, 4-(4-{[2-(4-chlorophenyl)-4,4-dimethylcyclohex-1-en-1-yl]methyl}piperazin-1-yl)-N-{[5-isopropyl-6-(tetrahydro-2H-pyran-4-ylmethoxy)pyridin-3-yl]sulfonyl}-2-(1H-pyrrolo[2,3-b]pyridin-5-yloxy)benzamide] | 0.391 |
